# In patent US10947196B2, “Beta adrenergic agonist and methods of using the same” (CURASEN THERAPEUTICS, INC., priority 2019, dated 2021):
# pEC50: −log10 of the molar value. Like-named read-outs stand apart in the source and are kept apart here.
# How the values were obtained:
# [1] = Rat CNS exposure measurement (plasma, CSF, brain); format: in vivo, male SD rats; settings: male, SD
# β1-adrenergic receptor = β1-adrenergic receptor (Homo sapiens (Human), UniProt P08588); test: cAMP Gs dynamic HTRF assay, β1 expressing CHO cells; format: cell-based; settings: for Average pEC50 [Receptor subtype: B1-AR; Cell type: CHO-K1 (HitHunter)] / pEC50: B1-AR; for pEC50: CHO-K cells, read-out: Average EC50 [Receptor subtype: B1-AR, Cell type: CHO-K]
# Procedure, shortened: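 Intracellular cAMP quantified by Eu-donor/d2-acceptor HTRF after 30 min compound exposure at 37° C in stimulation buffer with IBMX. Concentrations ran 10 μM top, 5-fold steps, 10 points. Cell lines: 1321N1 astrocytoma and CHO expressing β1 or β2; EC50 via four-parameter fit, relative efficacy against isoproterenol.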
# [2] = Hepatocyte stability (dog); format: in vitro ADME; settings: 0.5×10^6 viable cells/mL
# Procedure: 10 mM and 100 μM stock solutions of test compound(s) and a positive control were prepared in appropriate solvent (DMSO). In separate conical tubes, the 10 mM test compound and the positive control were diluted to 100 μM by combining 198 μL of 50% acetonitrile/50% water and 2 μL of 10 mM stock. The 100 μM test compound and the positive control were diluted to 30 μM by combining 140 μL of 50% acetonitrile/50% water and 60 μL of 100 μM stock solution. The 100 μM test compound and the positive control were diluted to 10 μM by combining 180 μL of 50% acetonitrile/50% water and 20 μL of 100 μM stock solution. The 100 μM test compound and the positive control were diluted to 3 μM by combining 194 μL of 50% acetonitrile/50% water and 6 μL of 100 μM stock solution.
# Incubation medium (William's E Medium supplemented with GlutaMAX) and hepatocyte thawing medium was placed in a 37° C. water bath, and allowed to warm for at least 15 minutes prior to use. A vial of cryopreserved hepatocytes from storage was then removed, ensuring that the vial remains at cryogenic temperatures until thawing process ensues. Cells were thawed by placing the vial in a 37° C. water bath and gently shaking the vial for 2 minutes. After thawing was completed, the vial was sprayed with 70% ethanol and transferred to a biosafety cabinet.
# A wide-bore pipette tip was used to transfer hepatocytes into 50 mL conical tube containing thawing medium. The 50 mL conical tube was placed into a centrifuge and spun at 100 g for 10 minutes. Upon completion of spin, the thawing medium was aspirated and the hepatocytes were resuspended in enough incubation medium to yield ˜1.5×10^6 cells/mL.
# Using AOPI staining solution, cells were counted and the viable cell density was determined. Cells with poor viability (<75% viability) are not acceptable for use. […]
# All calculations were carried out using Microsoft Excel. Peak areas were determined from extracted ion chromatograms. […]
# The in vitro half-life (in vitro t1/2) was determined from the slope value: in vitro t1/2=0.693/k
# Sequence of β1-adrenergic receptor (P08588 whole entry, species assumed): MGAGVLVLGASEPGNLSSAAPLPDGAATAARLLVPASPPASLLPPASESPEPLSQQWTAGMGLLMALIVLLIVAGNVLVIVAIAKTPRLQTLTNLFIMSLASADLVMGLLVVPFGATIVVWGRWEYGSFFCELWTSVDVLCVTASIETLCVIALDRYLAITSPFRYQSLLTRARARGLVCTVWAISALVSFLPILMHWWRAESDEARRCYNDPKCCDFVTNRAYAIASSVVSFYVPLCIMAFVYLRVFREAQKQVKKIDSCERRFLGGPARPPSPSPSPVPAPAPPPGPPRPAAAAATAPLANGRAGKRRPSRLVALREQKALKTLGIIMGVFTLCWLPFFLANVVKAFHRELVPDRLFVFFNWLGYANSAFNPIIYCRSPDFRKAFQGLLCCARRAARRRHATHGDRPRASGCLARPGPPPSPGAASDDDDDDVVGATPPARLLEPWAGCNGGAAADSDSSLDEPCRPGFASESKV
"concentration at 1 h ([1]; CSF, IV 1 mg/kg, read-out: Concentration, CSF) [ng/mL]","concentration at 1 h ([1]; CSF, PO 5 mg/kg, read-out: Concentration, CSF) [ng/mL]","concentration at 1 h ([1]; brain, IV 1 mg/kg, read-out: Concentration, Brain) [ng/g]","concentration at 1 h ([1]; brain, PO 5 mg/kg, read-out: Concentration, Brain) [ng/g]","concentration at 1 h ([1]; plasma, IV 1 mg/kg, read-out: Concentration, Plasma) [ng/mL]","concentration at 1 h ([1]; plasma, PO 5 mg/kg, read-out: Concentration, Plasma) [ng/mL]",SMILES,"concentration at 1 h ([1]; CSF, iv, 1 mg/kg, IV 1 mg/kg, read-out: Concentration, CSF) [ng/mL]","concentration at 1 h ([1]; brain, iv, 1 mg/kg, IV 1 mg/kg, read-out: Concentration, Brain) [ng/g]","concentration at 1 h ([1]; plasma, iv, 1 mg/kg, IV 1 mg/kg, read-out: Concentration, Plasma) [ng/mL]","EC50 (β1-adrenergic receptor; β1 EC50 (nM), cAMP HTRF) [nM]","Hepatocyte stability, Dog [2]",Average pEC50 [Receptor subtype: B1-AR; Cell type: CHO-K1 (HitHunter)] (β1-adrenergic receptor),pEC50 (β1-adrenergic receptor),"concentration at 1 h ([1]; in vivo, SC 1 mg/kg, read-out: Concentration, Plasma) [ng/mL]","concentration at 1 h ([1]; in vivo, sc, 1 mg/kg, SC 1 mg/kg, read-out: Concentration, Brain) [ng/g]","concentration at 1 h ([1]; in vivo, sc, 1 mg/kg, SC 1 mg/kg, read-out: Concentration, CSF) [ng/mL]"
–,–,–,–,–,–,CC(C)(C)NC[C@H](O)c1cccc(C(F)(F)F)n1 [Compound 03-3],142,680,199,10 to 100,5.3 μL/min/10^6 cells,–,–,–,–,–
113,242,267,497,184,642,"CC(C)(C)NC[C@H](O)c1cccc(C#N)n1 [Compound 03-5, (S)-6-(2-(tert-butylamino)-1-hydroxyethyl)picolinonitrile]",–,–,–,–,5.94-7.63 μL/min/10^6 cells,C (C = <7-6),6.00 to 7.00,–,–,–
–,–,–,–,–,–,Cc1ncccc1[C@@H](O)CNC(C)(C)C [Compound 03-115],–,–,–,–,8.13 μL/min/10^6 cells,C-D,< 6.00,149,142,56.2
